# Measurements published in US8324219B2, “Substituted benzoimidazolyl-pyrazine compounds for inflammation and immune-related uses” (Synta Pharmaceuticals Corp., priority 2007, dated 2012).
# Where a name gives a salt, the structure may show the parent alone.
# System: IL-2 production
# Experiment: Inhibition of IL-2 production in PHA-activated Jurkat cells (ELISA)
# Format: cell-based
# Settings: Homo sapiens, Jurkat, 20 h, PHA 2.5 μg/mL
# Experimental: Jurkat cells were placed in a 96 well plate (0.5 million cells per well in 1% FBS medium) then a test compound of this invention was added at different concentrations. After 10 minutes, the cells were activated with PHA (final concentration 2.5 μg/mL) and incubated for 20 hours at 37° C. under CO2. The final volume was 200 μL. Following incubation, the cells were centrifuged and the supernatants were collected and stored at −70° C. prior to assaying for IL-2 production. A commercial ELISA kit (IL-2 Eli-pair, Diaclone Research, Besancon, France) was used to detect production of IL-2, from which dose response curves were obtained. The IC50 value was calculated as the concentration at which 50% of maximum IL-2 production after stimulation was inhibited versus a non-stimulation control.
row,SMILES,IC50 [nM]
1,"O=C(Nc1cnc(-n2c(C(F)(F)F)nc3cc(O)ccc32)cn1)c1c(F)cccc1F [Compound 4, 2,6-Difluoro-N-[5-(5-hydroxy-2-trifluoromethyl-benzoimidazol-1-yl)-pyrazin-2-yl]-benzamide, sodium salt]",14

# Same assay, conditions: Homo sapiens, PHA 2.5 μg/mL, 20 hours
row,SMILES,IC50 [nM]
1,"O=C(Nc1cnc(-n2c(C(F)(F)F)nc3cc(O)ccc32)cn1)c1c(F)cccc1F [Compound 1, 2,6-Difluoro-N-[5-(5-hydroxy-2-trifluoromethyl-benzoimidazol-1-yl)-pyrazin-2-yl]-benzamide]",34
2,"COc1ccc2c(c1)nc(C)n2-c1cnc(NC(=O)c2c(F)cccc2F)cn1 [Compound 3, 2,6-Difluoro-N-[5-(5-methoxy-2-methyl-benzoimidazol-1-yl)-pyrazin-2-yl]-benzamide]",102

# More lines, now with the values ahead:
row,IC50 [nM],SMILES
1,97,"Nc1ccc2c(c1)nc(C(F)(F)F)n2-c1cnc(NC(=O)c2c(F)cccc2F)cn1 [Compound 6, N-[5-(5-Amino-2-trifluoromethyl-benzoimidazol-1-yl)-pyrazin-2-yl]-2,6-difluoro-benzamide]"
2,89,"O=C(Nc1cnc(-n2c(C(F)(F)F)nc3cc([N+](=O)[O-])ccc32)cn1)c1c(F)cccc1F [Compound 2, 2,6-Difluoro-N-[5-(5-nitro-2-trifluoromethyl-benzoimidazol-1-yl)-pyrazin-2-yl]-benzamide]"
3,84,"Cc1nnc(-c2ccc3c(c2)nc(C(F)(F)F)n3-c2cnc(NC(=O)c3c(F)cccc3F)cn2)o1 [Compound 9, 2,6-Difluoro-N-{5-[5-(5-methyl-[1,3,4]oxadiazol-2-yl)-2-trifluoromethyl-benzoimidazol-1-yl]-pyrazin-2-yl}-benzamide]"
4,39,"O=C(Nc1cnc(-n2c(C(F)(F)F)nc3cc(-c4nnco4)ccc32)cn1)c1c(F)cccc1F [Compound 8, 2,6-Difluoro-N-[5-(5-[1,3,4]oxadiazol-2-yl-2-trifluoromethyl-benzoimidazol-1-yl)-pyrazin-2-yl]-benzamide]"
5,29,"CN(C)c1ccc2c(c1)nc(C(F)(F)F)n2-c1cnc(NC(=O)c2c(F)cccc2F)cn1 [Compound 5, N-[5-(5-Dimethylamino-2-trifluoromethyl-benzoimidazol-1-yl)-pyrazin-2-yl]-2,6-difluoro-benzamide]"
